Assay results from patent US20190204338A1, “Methods for the Characterisation of Interaction Sites on Target Proteins” (Phylogica Limited, priority 2012, published 2019).

Experiments:
Format in all cases: cell-based, human
[1] = system: Srxn1 promoter containing mutated AP1 response elements; test: Control Srxn1 promoter reporter with mutated AP1 response elements; settings: n=3, p>0.05
Protocol: From this primary screen, we concentrated on the PYC36-like, AP1-inhibitory Phylomers, and selected 14 initial hits. […] Reporter activity/inhibition was calculated by normalizing Firefly activity to Renilla.

[2] = system: Sulfiredoxin (Srxn1) promoter; test: Srxn1-luciferase reporter assay (PMA-dependent activation); settings: U2oS cells, normalised to Renilla, n=3, p<0.05
Protocol: From this primary screen, we concentrated on the PYC36-like, AP1-inhibitory Phylomers, and selected 14 initial hits. Of these, 7 (TABLE 2 and FIG. 8) were confirmed to inhibit AP1-luciferase activity in a secondary reporter assay normalised to Renilla luciferase expression (FIG. 2). Briefly, Phylomer DNA of the primary hits was re-prepared from the original clones selected for the mini-library (Endo-Free Maxi-Prep, Qiagen), and 5×10^5 U2oS cells were co-transfected with 800 ng DNA comprising AP1-luciferase or Srxn1-luciferase (Papadia et al., 2008) (Firefly), pRL-TK (Renilla) and Phylomer plasmid. Reporter activity/inhibition was calculated by normalizing Firefly activity to Renilla.
As an additional confirmatory experiment, we asked whether these 6 Phylomers specifically regulated expression of a known AP1 target gene by testing their effect on the Sulfiredoxin (Srxn1) promoter, recently established as an AP1-dependent component of the anti-oxidant response mechanism (Papadia et al., 2008). Of the 6 Phylomers tested, 3 inhibited PMA-dependent activation of this promoter: 6G8, 25C3 and 48E6 (FIG. 3a). Importantly, these Phylomers had no effect upon PMA-induced transcription from a control Srxn1 promoter in which the AP1 response elements had been ablated by mutation (FIG. 3b), confirming that their effect on the Srxn1 promoter is AP1-specific.

[3] = system: AP1-luciferase reporter; test: Primary phenotypic screen: PMA-mediated AP1-driven luciferase reporter in transfected U2oS cells; settings: U2oS cells co-transfected with Phylomer plasmid, PMA 100 nM, read 24 hours later
Protocol: The mini-library of 3120 individual transfection-ready plasmids was used in a microtitre plate-based transfection assay system (ie, and array-based format) in the U2oS cell line, and the effects of the Phyomers expressed from this mini-library were assessed upon PMA-mediated AP1-driven luciferase reporter expression. The previously identified Phylomer PYC36 ([…] SEQ ID NO: 5)—found by reverse target-based yeast 2-hybrid screening against c-Jun bait, and known to affect AP1-dependent transcription (Mead et al., 2010 J. Neurochem, 112: 258-270)—was used as positive control.
Briefly, in triplicate plates, 1×10^5 U2oS cells were plated overnight and co-transfected with 100 ng of both AP1-luciferase reporter (Stratagene) and either an individual Phylomer construct from the mini-libary, or positive control (pcDNA3.1/PYC36) or vector control (pcDNA3.1/nV5-DEST-GusB). PMA (100 nM) was used to induce AP1-dependent luciferase expression 6 hours post-transfection, and luciferase activity was measured 24 hours later (SteadlyGlo, Promega).

Substance	PMA-induced transcription from control Srxn1 promoter with AP1 response elements ablated by mutation [1]	PMA-dependent activation of the Srxn1 promoter (Srxn1-luciferase activity) [2]	AP1-dependent luciferase activity (transcription) [3]
6G8: AP1-inhibitory Phylomer RAEKCGKLF (SEQ ID NO: 10) (Protein fragment of unknown organism) [Phylomer 6G8]	no effect	inhibited	
48E6: AP1-inhibitory Phylomer HSDRTADI (SEQ ID NO: 18) (Protein fragment of unknown organism) [Phylomer 48E6]	no effect	inhibited	
PYC36: previously identified Phylomer GLQGRRRQGYQSIKP (SEQ ID NO: 5), positive control known to affect AP1-dependent transcription (Protein fragment of unknown organism) [reference compound]		significant inhibition	inhibited transcription
